The target of assay [1] is T1, human endothelial lipase (EL) (Homo sapiens, UniProt Q9Y5X9).
T1 construct: host or cells: cells expressing human endothelial lipase
T1 sequence (Q9Y5X9 21-500): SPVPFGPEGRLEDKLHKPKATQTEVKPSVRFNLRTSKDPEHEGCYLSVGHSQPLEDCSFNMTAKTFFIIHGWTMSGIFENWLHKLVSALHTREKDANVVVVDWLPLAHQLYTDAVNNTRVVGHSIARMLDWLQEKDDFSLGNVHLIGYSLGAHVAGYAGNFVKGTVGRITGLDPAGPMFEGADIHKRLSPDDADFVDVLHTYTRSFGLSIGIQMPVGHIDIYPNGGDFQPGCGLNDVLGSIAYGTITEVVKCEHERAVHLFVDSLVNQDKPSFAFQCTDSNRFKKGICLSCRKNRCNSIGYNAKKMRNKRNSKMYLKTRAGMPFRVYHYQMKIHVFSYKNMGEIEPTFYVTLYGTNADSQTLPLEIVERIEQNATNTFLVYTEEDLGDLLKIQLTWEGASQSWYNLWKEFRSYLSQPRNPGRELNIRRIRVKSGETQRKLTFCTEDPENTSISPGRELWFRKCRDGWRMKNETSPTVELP
Kind of assay: Endothelial Lipase Assay, cell surface lipase activity (human). Type of assay: cell-based. As to conditions: cells expressing human EL, PLA1 substrate 10 μM, fluorescence reaction rate; several values in a cell are repeat determinations. The procedure:
(§1) Endothelial Lipase Assay (Human/Mouse)
(§2) To assay for cell surface lipase activity, cells expressing human endothelial lipase (EL) or LPL were plated in CellBIND® 384-well plates (Corning, Lowell, Mass.) in 25 μL serum free medium at a density of 2000 cells/well. After 18-24 hours incubation at 37° C., the medium was removed and replaced with 15 μL assay buffer [Hank's Buffered Saline Solution with 25 mM HEPES pH 7.2] and 15 μL PLA1 for a final concentration of 10 μM using a Multidrop reagent dispenser. Fluorescence signal was monitored for 30 min at 37° C. on a Safire II plate reader in kinetic mode (60 cycles, kinetic interval: 30 seconds) with an excitation wavelength of 490 nm and an emission wavelength of 515 nm. Linear regression of the fluorescence intensity collected from 480 to 1500 seconds was used to calculate the reaction rate (the slope) and the slopes were used to calculate IC50 values where appropriate. The amount of BODIPY-labeled product generated was calculated at the 30 min time point as determined from standard curve analysis of purified BODIPY FL C5. In all studies using the inhibitor Ebelactone B, consistent results were obtained when it was dissolved as a stock in DMSO, immediately before use.

The next assay deals with T2, Mouse EL (Mus musculus, UniProt Q9WVG5).
T2 construct: host or cells: not described for mouse EL
T2 sequence (Q9WVG5 21-500): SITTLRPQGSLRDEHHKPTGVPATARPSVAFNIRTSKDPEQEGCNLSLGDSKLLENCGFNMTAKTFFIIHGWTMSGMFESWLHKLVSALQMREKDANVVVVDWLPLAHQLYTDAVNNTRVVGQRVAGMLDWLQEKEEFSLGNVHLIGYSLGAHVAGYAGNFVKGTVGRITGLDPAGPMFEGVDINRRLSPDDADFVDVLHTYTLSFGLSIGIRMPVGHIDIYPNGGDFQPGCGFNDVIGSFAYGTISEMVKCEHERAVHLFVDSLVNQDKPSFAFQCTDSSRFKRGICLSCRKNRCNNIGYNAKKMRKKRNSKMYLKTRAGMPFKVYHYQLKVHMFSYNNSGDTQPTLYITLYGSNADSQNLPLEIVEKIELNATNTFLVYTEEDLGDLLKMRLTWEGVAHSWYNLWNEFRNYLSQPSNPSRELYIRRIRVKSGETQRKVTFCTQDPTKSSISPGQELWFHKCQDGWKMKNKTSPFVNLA
Kind of assay: Endothelial Lipase Assay, cell surface lipase activity (mouse). As to conditions: PLA1 substrate 10 μM, fluorescence reaction rate, several values in a cell are repeat determinations. Type of assay: cell-based. The procedure: as §1, §2

The structures appear in SMILES notation. Where “and” joins values, the source holds several entries; their conditions need not be identical. Identical values can stand only once.

By IC50 is commonly meant the midpoint of a concentration-inhibition curve. As for `O=C(CCCCCCc1cccc(OC(F)(F)F)c1)C(=O)NCc1nnc(-c2ccccc2)o1` [Compound 49], the IC50 was 0.561 µM in assay [1] and 0.312 µM against Mouse EL.
For `O=C(CCCCCOc1ccccc1)C(=O)NCc1nnc(-c2ccc(Oc3ccccc3)cc2)o1` [Compound 52], in that order: 2.61 µM and 1.8 µM.
The matching figures for `CC(C)(C)OC(=O)N(Cc1ccccc1)c1ccc(-c2nnc(CNC(=O)C(=O)CCCCCCc3ccccc3)o2)cc1` [Compound 115]: 0.515 µM and 0.254 µM.
Regarding `O=C(CCCCCOc1cccc(F)c1)C(=O)NCc1nnc(-c2ccc(Oc3ccccc3)cc2)o1` [Compound 55], the 50% inhibitory concentration (IC50) in assay [1] was 0.34 µM; on Mouse EL, 0.384 µM.
For the compound `O=C(CCCCCCc1ccccc1)C(=O)NCc1nnc(-c2ccc(OCc3ccccc3F)cc2)o1` [Compound 85], the IC50 in assay [1] was found to be 0.223 µM; at Mouse EL, 0.169 µM.
In the case of `O=C(CCCCCCc1ccccc1)C(=O)NCc1nnc(-c2cccc(Cl)c2)o1` [Compound 18], the IC50 in assay [1] is 0.44 µM; at Mouse EL, 0.346 µM.
For `COC(=O)c1cccc(COc2ccc(-c3nnc(CNC(=O)C(=O)CCCCCCc4ccc(F)nc4)s3)cc2)c1` [Compound 170], in that order: 0.016 µM and 0.014 µM.
Consider `O=C(CCCCCOc1cc(F)cc(F)c1)C(=O)NCc1nnc(-c2ccc(Oc3ccccc3)cc2)s1` [Compound 133], for which the concentration for half-maximal inhibition (IC50) in assay [1] turned out to be 0.386 µM; on Mouse EL it was 0.176 µM.
The matching figures for `O=C(CCCCCOc1c(F)cccc1F)C(=O)NCc1nnc(-c2ccc(Oc3ccccc3)cc2)o1` [Compound 93]: 3.06 µM and 1.48 µM.
For `O=C(CCCCCOc1cc(F)ccc1F)C(=O)NCc1nnc(-c2ccc(OCc3ccccc3)cc2)o1` [Compound 94], the values for the IC50 (in assay [1]; against Mouse EL) were 0.936 µM and 0.634 µM, respectively.
For `O=C(CCCCCCc1ccccc1)C(=O)NCc1nnc(-c2ccc(OCc3ccc4ccccc4n3)cc2)o1` [Compound 89], in that order: 0.565 µM and 0.232 µM.
The matching figures for `O=C(CCCCCOc1cccc(F)c1)C(=O)NCc1nnc(-c2ccc(OCc3ccccc3)cc2)o1` [Compound 69, N-((5-(4-(benzyloxy)phenyl)-1,3,4-oxadiazol-2-yl)methyl)-7-(3-fluorophenoxy)-2-oxoheptanamide]: 0.272 µM and 0.835 µM.
`O=C(CCCCCOc1ccccc1)C(=O)NCc1nnc(-c2ccc3ccccc3c2)o1` [Compound 48]: the IC50 in assay [1] was 1.96 µM; against Mouse EL, 1.71 µM.
For `O=C(CCCCCNc1ncccn1)C(=O)NCc1nnc(-c2ccc(OCc3ccccc3)cc2)o1` [Compound 176], in that order: 27.9 µM and 27 µM.
As to `O=C(CCCCCOc1ccccc1)C(=O)NCc1nnc(-c2cccc(Oc3ccccc3)c2)o1` [Compound 60], the values for the IC50 (in assay [1]; on Mouse EL) were 7.12 µM and 9.79 µM, respectively.
In the case of `O=C(CCCCCCc1ccc(F)nc1)C(=O)NCc1nnc(-c2ccc(OCc3ccnc(F)c3)cc2)s1` [Compound 168], the concentration for half-maximal inhibition (IC50) is 0.107 µM in assay [1] and 0.064 µM at Mouse EL.
`Cc1cc(COc2ccc(-c3nnc(CNC(=O)C(=O)CCCCCCc4ccccc4)s3)cc2)ccn1` [Compound 174]: the IC50 was found to be 0.078 µM in assay [1] and 0.051 µM against Mouse EL.
The matching figures for `O=C(CCCCCCc1ccccc1)C(=O)NCc1nnc(-c2ccc(Oc3ccc(F)cc3)cc2)o1` [Compound 106]: 0.746 µM and 0.298 µM.
Regarding `O=C(CCCCCCc1ccc2nc(Cl)ccc2c1)C(=O)NCc1nnc(-c2ccccc2)o1` [Compound 50], the figures for the IC50 (in assay [1]; against Mouse EL) were 0.564 µM and 0.267 µM, respectively.
For `O=C(CCCCCCc1ccccc1)C(=O)NCc1nnc(-c2ccc(C(F)(F)F)cc2)o1` [Compound 22], the 50% inhibitory concentration (IC50) in assay [1] was 0.268 µM and 0.552 µM; on Mouse EL, 0.435 µM and 0.396 µM.
`O=C(CCCCCCc1ccccc1)C(=O)NCc1nnc(-c2ccc3c(=O)n4c(nc3c2)CCC4)o1` [Compound 19]: the IC50 turned out to be 5.38 µM in assay [1] and 3.05 µM against Mouse EL.
In the case of `CN(Cc1ccc(F)c(F)c1)c1ccc(-c2nnc(CNC(=O)C(=O)CCCCCCc3ccccc3)o2)cc1` [Compound 110], the values for the IC50 (in assay [1]; against Mouse EL) were 0.677 µM and 0.346 µM, respectively.
As to `O=C(CCCCCCc1ccccc1)C(=O)NCc1nnc(-c2ccc(OCc3ccccn3)cc2)s1` [Compound 139], the IC50 in assay [1] was 0.071 µM; against Mouse EL it was 0.042 µM.
As for `O=C(CCCCCCc1ccccc1)C(=O)NCc1nnc(-c2ccc(OCc3cccnc3)cc2)s1` [Compound 138], the IC50 in assay [1] is 0.055 µM and 0.108 µM; against Mouse EL, 0.058 µM and 0.079 µM.
Turning to `O=C(CCCCCCc1ccncc1)C(=O)NCc1nnc(-c2ccccc2)o1` [Compound 42], the IC50 was found to be 4.65 µM in assay [1] and 2.73 µM against Mouse EL.
Turning to `O=C(CCCCCCc1ccccc1)C(=O)NCc1nnc(-c2ccc(OCc3ccc(F)cc3)cc2)o1` [Compound 80], the half-maximal inhibitory concentration (IC50) in assay [1] is 0.6 µM; at Mouse EL, 0.214 µM.
For `O=C(CCCCCCc1ccccc1)C(=O)NCc1nnc(-c2ccc(OCc3cccc(F)c3)cc2)o1` [Compound 84], in that order: 0.235 µM and 0.2 µM.
As for `O=C(CCCCCOc1ccc(F)cc1F)C(=O)NCc1nnc(-c2ccc(Oc3ccccc3)cc2)o1` [Compound 92], the concentration for half-maximal inhibition (IC50) in assay [1] came to 0.432 µM; on Mouse EL, 0.911 µM.
For the compound `O=C(CCCCCCc1ccccc1)C(=O)NCc1nnc(-c2ccc(-c3ccccc3)cc2)o1` [Compound 17], the IC50 came out at 3.36 µM in assay [1] and 1.88 µM on Mouse EL.
In the case of `O=C(CCCCCCc1ccccc1)C(=O)NCc1nnc(-c2ccc(OCc3cccc(Cl)n3)cc2)s1` [Compound 164], the IC50 worked out at 0.751 µM in assay [1] and 0.232 µM against Mouse EL.
For `O=C(CCCCCCc1ccccc1)C(=O)NCc1nnc(-c2ccccc2F)o1` [Compound 12], the IC50 amounted to 2.1 µM in assay [1] and 1.76 µM against Mouse EL.
For `O=C(CCCCCc1ccccc1)C(=O)NCc1nnc(-c2ccccc2)o1` [Compound 33], in that order: 3.76 µM and 3.35 µM.
For `O=C(CCCCCOc1cccc(F)c1)C(=O)NCc1nnc(-c2ccc3ccccc3c2)o1` [Compound 54], the results for the concentration for half-maximal inhibition (IC50) (in assay [1]; against Mouse EL) were 0.916 µM and 0.802 µM, respectively.
For `Cc1ncsc1CCCCCCC(=O)C(=O)NCc1nnc(-c2ccc(OCc3ccncc3)cc2)s1` [Compound 166], in that order: 0.809 µM and 0.479 µM.
For `Cc1ccc(-c2nnc(CNC(=O)C(=O)CCCCCOc3ccccc3)o2)cc1` [Compound 47], in that order: 3.19 µM and 3.03 µM.
For `O=C(CCCCCCc1ccccc1)C(=O)NCc1nnc(-c2ccc(Oc3ccc(Cl)cc3)cc2)o1` [Compound 59], in that order: 2.59 µM and 1.11 µM.
Take `CN(Cc1ccccc1)c1ccc(-c2nnc(CNC(=O)C(=O)CCCCCCc3ccccc3)o2)cc1` [Compound 109]: the figures for the IC50 (in assay [1]; against Mouse EL) were 0.505 µM and 0.317 µM, respectively.
For `O=C(CCCCCCc1ccccc1)C(=O)NCc1nnc(-c2ccc(Oc3ncccn3)cc2)o1` [Compound 87], the values for the half-inhibitory concentration (IC50) (in assay [1]; against Mouse EL) were 1.45 µM and 0.708 µM, respectively.
The matching figures for `O=C(CCCCCCc1ccccc1)C(=O)NCc1nnc(-c2ccccc2)s1` [Compound 74]: 0.219 µM and 0.436 µM.
The matching figures for `O=C(CCCCCCc1ccccc1)C(=O)NCc1nnc(-c2ccc(OCc3cccc(F)n3)cc2)s1` [Compound 151]: 0.712 µM and 0.661 µM.

For the origin of these results see patent US8476302B2, “α-ketoamide derivatives useful endothelial lipase inhibitors” (Janssen Pharmaceutica N.V., priority 2010, dated 2013).
